Experimental data as given in US20220160867A1, “METHODS AND COMPOSITIONS COMPRISING CATIONIC LIPIDS FOR IMMUNOTHERAPY BY DIRECT TUMOR INJECTION” (PDS Biotechnology Corporation, priority 2020, published 2022).

Test system: HPV-positive TC-1 tumor cells
Assay: TC-1 tumor model, tumor growth and survival after single treatment
Type: in vivo, B6 mice
Procedure: FIG. 1 provides a survival plot: B6 mice (n=4 per group) were implanted with 50,000 TC1 tumor cells subcutaneously. On day 10, group 2 received tumor vaccine R-DOTAP−HPV mix formulation (100 μl) (ASP3-250-HPV mix) containing HPV antigens (ASP3/R-DOTAP (S.C.) in the opposite flank of the tumor and group 3 mice received intra-tumoral injection of R-DOTAP (50 μl of 6 mg/ml) (RDOTAP (IT)).
Three groups of mice were injected on day 0 with 50,000 HPV-positive TC-1 tumor cells. In order for a stringent test of antitumor effect, the tumors were allowed to grow to a size of 6-7 mm prior to treatment on Day 10. The aggressively growing tumors reached a size of 10 mm by Day 14. Group 1 mice (Naïve) were left untreated and had to be sacrificed by Day 16. The mice in Group 2 (ASP3/R-DOTAP S.C.) were treated with one subcutaneous injection of R-DOTAP+HPV16(49-57) antigen injection on the opposite flank to the tumor. The mice in Group 3 (R-DOTAP IT) were treated with a single intra-tumoral injection of R-DOTAP only. The tumor sizes and survival of all 3 groups were monitored.
FIG. 1 provides a survival plot: B6 mice (n=4 per group) were implanted with 50,000 TC1 tumor cells subcutaneously.

Question: Which results are given for `CCCCCCCC/C=C\CCCCCCCC(=O)OC[C@@H](C[N+](C)(C)C)OC(=O)CCCCCCC/C=C\CCCCCCCC` [R-DOTAP, (R)-1,2-dioleoyl-3-trimethylammonium propane]?
Answer: antitumor efficacy (survival plot, FIG. 1) (intra-tumoral R-DOTAP only, 50 μl of 6 mg/ml, no antigen, compared with sub-cutaneous R-DOTAP+antigen): comparable antitumor efficacy; tumor growth rates (tumors 6-7 mm at single treatment on Day 10, data not shown): dramatic slowing of the tumor growth rates
